In one series the test system is Pseudomonas aeruginosa. The experiment in a line: Biocidal performance, plate counting of viable bacteria (Example 20). Format: cell-based. The note with it: nominal 0.2 ppm total halogen as Cl2, phosphate buffer pH 8.5, 10 minutes at 35° C. The text has this: The biocidal performance of the liquid composition of the present invention was compared to a solution of sodium bromide activated using an equimolar amount of sodium hypochlorite bleach, and a solution prepared from 1-bromo-3-chloro-5,5-dimethylhydantoin (BCDMH). Sterile phosphate buffer samples (pH 8.5) were inoculated with Pseudomonas aeruginosa to give a concentration of approximately 5×10^6 bacteria/ml and then challenged with the test systems at a nominal concentration of 0.2 ppm total halogen (as Cl2).
After a contact time of 10 minutes at 35° C., an aliquot of sodium thiosulfate was added to each sample to neutralize the halogen. The level of viable bacteria in each sample was determined by plate counting. Plates were incubated at 35° C. for 48 hours.

For series [1] the following is noted: cited from earlier work.
Series [2] in a line: Dissolution of crystalline bromine-containing solid in water. The note with it: crystalline solid dissolved in water. Format: physicochemical. The text has this: The resulting slurry was stirred as solid sodium hydroxide pellets were charged to the reaction flask. […] As the reaction proceeded, a fine powdery precipitate developed which was removed by vacuum filtration. […] Iodometric titration of the resulting golden yellow solution was used to determine its Br2 content of 27.2% (or 12.1% as Cl2). Within a few minutes, this highly concentrated bromine solution started to turn turbid as crystals began to form. The crystallizing solution was chilled in an ice bath to expedite the development of the crystals. A large crop of yellow crystalline material was separated by vacuum filtration, and the mother liquors were retitrated iodometrically. […] There were no insoluble residues. Iodometric titration of resulting solutions was used to calculate that the crystalline solid contained 29.9% Br2 (13.1% as Cl2).
To a stirred reaction flask containing 40% sodium bromide solution was added solid sulfamic acid (82.3 g). The resultant slurry was stirred as 50% sodium hydroxide (60.2 g) was introduced. […] However, the reaction medium became very viscous, and this hampered the mixing efficiency, so deionized water (35.8 g) was added to thin the mixture. The fine powdery precipitate that developed was removed by vacuum filtration. […] The mother liquors were determined to have a bromine content of 20.9% as Br2 (9.3% as Cl2) by iodometric titration. […]

The nature of series [3]: Heating of crystals in ceramic crucible on hot plate (Example 23). Format: physicochemical. The note with it: towel-dried crystals heated on a hot plate. The text has this: Another large portion of the crystalline mass was dried with a paper towel and placed in a ceramic crucible that was heated on a hot plate.
A short description of series [4]: Storage stability of anhydrous N-bromosulfamate sodium salt in vacuum dessicator (Example 24). The format is physicochemical. Conditions: three months of storage at room temperature in vacuum dessicator. The method, then: A further portion of the towel dried crystals from Example 17 was dehydrated by placing in a vacuum dessicator containing molecular sieves. After 15 days, a loss of 31% of the original weight was determined. Although the crystals lost their glass-like appearance, the rhomobohedral shape was retained.
The sodium salt of anhydrous N-bromosulfamate was placed back in the vacuum dessicator.

The structures appear in SMILES notation. “Also recorded” adds a separate entry of the source.

On to `CC1(C)C(=O)N(Cl)C(=O)N1Br` [BCDMH, 1-bromo-3-chloro-5,5-dimethylhydantoin], for which the “Log Reduction in viable bacteria/ml” value in the series on Pseudomonas aeruginosa is listed as 3.3 Log. Further, in the series with Pseudomonas aeruginosa (inoculum approx. 5×10^6 bacteria/ml), the “Viable bacteria/ml after 10 minutes” value is on record as 2.5 × 10^3 bacteria/ml. For the same molecule, the Water solubility in series [1] (at 20° C.) is 0.1%.

`O=S(=O)([O-])NBr.[Na+]` [Example 17, sodium salt of hydrated N-bromosulfamate]: in series [2], the Dissolution in water entry was “dissolved rapidly and completely; also recorded: dissolved quickly and completely”. Moreover, the “Temperature at which water of crystallization boiled off and product decomposed, evolving bromine vapors” value in series [3] is recorded as “about 221 ° F”.

`O=S(=O)([O-])NBr.[Na+]` [sodium salt of anhydrous N-bromosulfamate]: in series [4], the “Loss of activity on storage” value is “not to have lost any activity”.

For `O=c1n(Cl)c(=O)n(Cl)c(=O)n1Cl` [trichloroisocyanuric acid], in series [1] (at 25° C.), the “Saturated solution in water” value is 1.1 % as Cl2.

Values taken from patent US7455859B2, “Highly concentrated bromine compositions and methods of preparation” (Enviro Tech Chemical Services, Inc., priority 2003, dated 2008).
